Entries after “also recorded” stand apart in the source; their conditions may differ.
Columns and labels:
Format in all cases: cell-based
HeLa cells [1] = test: Serum resistant transfection, cationic lipids with phosphate lipid DOPA, HeLa IC50 (Example 15); settings: liposomes of the cationic lipid in combination with phosphate lipid DOPA, PLK-1 siRNA
Procedure: (§1) HeLa cells were obtained from DSMZ (German Collection of Micro Organism and Cell Cultures) and maintained in DMFM (Gibco-Invitrogen) and supplemented with 10% FCS. The cells were plated at a density of 2.5×10^4 cells/ml and cultivated in 100 μl medium at 37° C. under 5% CO2. After 16 h, the liposomes containing siRNA were diluted and 10 μl were added to the cells to yield final concentrations between 0.4 to 100 nM Plk1 or scrambled siRNA; 10 μl dilution buffer were also added to untreated cells and into wells without cells. Cell culture dishes were incubated for 72 h at 37° C. under 5% CO2
(§2) Cell proliferation/viability was determined by using the CellTiter-Blue Cell Viability assay (Promega, US) according to the instructions of the supplier.
Series of liposomes having C/A ratios of either 0.75 or 1 were produced and loaded with siRNA as in Example 5. The cationic lipid components were CHOLGUA, CHIM, DC-CHOL, GUADACA, MPDACA, BADACA, PONA, DOTAP or DODAP. The anionic lipid was DOPA and the cholesterol content was 40 mol %, all lipid mixtures are identified in table 20. Liposomes were further supplied with 1.5 mol % DMPE-PEG2000 (Nippon Oils and Fats).
(§3) HeLa cells were grown and maintained as in Example 2 and mouse serum (SIGMA-Aldrich) was added directly to the cells for 120-min. Following that, the liposomes were added to the cells, incubation was continued for 72 h and cell viability was determined as above. The efficacy of transfection is expressed here as IC50 (in nM of siRNA) as in Example 5.

HeLa cells [2] = test: Serum resistant transfection, DACA or cholesterol based cationic lipids with carboxyl lipids, HeLa (Example 14); settings: for serum-resistant transfection of HeLa cells: liposomes of the cationic lipid with carboxyl lipid DOGS and cholesterol, PLK-1 siRNA, 10% mouse serum; for transfection of HeLa cells in the presence of mouse serum: liposomes of the cationic lipid with carboxyl lipids CHEMS, DMGS or DOGS, 20 or 40 mol % cholesterol
Procedure: All liposomes were loaded with PLK-1 siRNA, an oligonucleotide capable of inhibiting the production of the cell cycle kinase PLK-1 and successful transfection was measured by inhibition of cell viability of the test cells (see also Haupenthai et al., int. J. Cancer (2007), 121:206-210. Unspecific inhibition of the cell viability, that is, cytotoxic effects, were monitored by control preparations comprising a non-targeting siRNA of the same general composition and in the same amounts.
The transfection of cells was followed in regular cell culture medium or with the additional presence of 10% mouse serum, a potent inhibitor of cellular uptake for many amphoteric liposomes. The efficacy of transfection is expressed as IC50, the concentration needed to achieve a 50% inhibition of the cell viability.
The ratio between the IC50 in regular medium and the IC50 upon addition of mouse serum is used as a metric for the inhibition of the cellular uptake by mouse serum. This ratio is 5 or higher for liposomes without specific targeting properties. It is 5 or lower for the liposomes of this invention; that is liposomes comprising charged imino groups in combination with negatively charged lipids.
Series of liposomes having systematically varied ratios between the cationic and anionic lipid components were produced and loaded with siRNA as in Example 5. The cationic lipid components were CHOLGUA, CHIM, DC-CHOL, TC-CHOL, GUADACA, MPDACA, BADACA end PDAGA. The anionic lipids were CHEMS, DMGS or DOGS and the cholesterol content was either 20 or 40 mol %, all lipid mixtures are identified in the data tables. Liposomes having a ratio of the cationic: anionic lipid of 1 or greater (C/A>=1) were further supplied with 1.5 mol % DMPE-PEG2000 (Nippon Oils and Fats).
as §3, with “120 min.” for “120-min.”, “The highest concentrations of liposomes were 40 nM and 36 nM for experiments in the absence or presence of mouse serum, respectively. The” for “The”, “nM” for “nM of”

HeLa cells [3] = test: Criticality of the guanido head group, HeLa proliferation IC50 with and without sera (Example 6); settings: mixtures comprising an excess of the anionic lipid CHEMS, 20% cholesterol
Procedure: as §1, §2
Series of liposomes having systematically varied ratios between the cationic and anionic lipid components were produced and loaded with siRNA as in Example 5. The cationic lipid components were PONA, PONamine and PONammonium, the anionic lipid was CHEMS and the cholesterol content was fixed to 20 mol %. […]
HeLa cells were grown and maintained as in Example 2 and sera of human or mice origin (SIGMA-Aldrich) was added directly to the cells for 120 min. Following that, the liposomes were added to the cells in concentrations between 50 pM and 50 nM, incubation was continued for 72 h and cell viability was determined as above. […]

Row | SMILES | transfection of HeLa cells in the presence of serum (HeLa cells [1]) | serum-resistant transfection of HeLa cells (HeLa cells [2]) | transfection activity in the presence of sera (HeLa cells [3]) | transfection of HeLa cells in the presence of mouse serum (HeLa cells [2])
1 | CC(C)CCC[C@@H](C)[C@H]1CC[C@H]2[C@@H]3CCC4CC(OC(=O)NCCCn5ccnc5)CC[C@]4(C)[C@H]3CC[C@]12C (some centres unmarked) [CHIM, reference compound] | did not result in any transfection in the presence of serum | – | – | –
2 | CCCCCCCC/C=C/CCCCCCCC(=O)NC(CCN)C(=O)NCCCCCCCCCCCCCCCC (centres unmarked) [PONamine] | resulted in serum-resistant transfection | – | – | –
3 | CC(C)CCC[C@@H](C)[C@H]1CC[C@H]2[C@@H]3CC=C4C[C@@H](OC(=O)NCCN(C)C)CC[C@]4(C)[C@H]3CC[C@]12C [DC-CHOL, reference compound] | did not result in any transfection in the presence of serum | still active in the absence, but no longer in the presence of mouse serum | – | –
4 | CCCCCCCC/C=C/CCCCCCCC(=O)NC(CC[N+](C)(C)C)C(=O)NCCCCCCCCCCCCCCCC (centres unmarked) [PONammonium] | not PONammonium resulted in serum-resistant transfection | – | remained inactive in the presence of sera | –
5 | CCCCCCCC/C=C/CCCCCCCC(=O)NC(CCNC(=N)N)C(=O)NCCCCCCCCCCCCCCCC (centres unmarked) [PONA, palmitoyl-oleoyl-nor-arginine] | resulted in serum-resistant transfection; also recorded: remain potent transfectants even in the presence of mouse serum | – | – | remain potent transfectants even in the presence of mouse serum
6 | CC(C)CCC[C@@H](C)[C@H]1CC[C@H]2[C@@H]3CC=C4C[C@@H](OC(=O)NCCNC(=N)N)CC[C@]4(C)[C@H]3CC[C@]12C [CHOLGUA] | remain potent transfectants even in the presence of mouse serum | best serum-resistant transfection | – | remain potent transfectants even in the presence of mouse serum

Source: US11541010B2, “Amphoteric liposomes comprising imino lipids” (BioNTech Delivery Technologies GmbH, priority 2009, dated 2023)
